Source: US10689376B2, “Substituted-3H-imidazo [4,5-c] pyridine and 1H-pyrrolo[2,3-c]pyridine series of novel ectonucleotide pyrophosphatase/phosphodiesterase-1 (ENPP1) and stimulator for interferon genes (STING) modulators as cancer immunotherapeutics” (Stingray Therapeutics, Inc., priority 2017, dated 2020)

Key:
[1] = target: Recombinant Human ENPP-1 Protein (Homo sapiens (Human), UniProt P22413); assay: ENPP1 Inhibition Assay; type: biochemical; conditions: for IC50: substrate thymidine 5′-monophosphate p-nitrophenol ester, absorbance at 405 nm; for inhibiting the activity of ENPP1 (FIG. 1): result in words
Sequence of Recombinant Human ENPP-1 Protein (P22413 whole entry): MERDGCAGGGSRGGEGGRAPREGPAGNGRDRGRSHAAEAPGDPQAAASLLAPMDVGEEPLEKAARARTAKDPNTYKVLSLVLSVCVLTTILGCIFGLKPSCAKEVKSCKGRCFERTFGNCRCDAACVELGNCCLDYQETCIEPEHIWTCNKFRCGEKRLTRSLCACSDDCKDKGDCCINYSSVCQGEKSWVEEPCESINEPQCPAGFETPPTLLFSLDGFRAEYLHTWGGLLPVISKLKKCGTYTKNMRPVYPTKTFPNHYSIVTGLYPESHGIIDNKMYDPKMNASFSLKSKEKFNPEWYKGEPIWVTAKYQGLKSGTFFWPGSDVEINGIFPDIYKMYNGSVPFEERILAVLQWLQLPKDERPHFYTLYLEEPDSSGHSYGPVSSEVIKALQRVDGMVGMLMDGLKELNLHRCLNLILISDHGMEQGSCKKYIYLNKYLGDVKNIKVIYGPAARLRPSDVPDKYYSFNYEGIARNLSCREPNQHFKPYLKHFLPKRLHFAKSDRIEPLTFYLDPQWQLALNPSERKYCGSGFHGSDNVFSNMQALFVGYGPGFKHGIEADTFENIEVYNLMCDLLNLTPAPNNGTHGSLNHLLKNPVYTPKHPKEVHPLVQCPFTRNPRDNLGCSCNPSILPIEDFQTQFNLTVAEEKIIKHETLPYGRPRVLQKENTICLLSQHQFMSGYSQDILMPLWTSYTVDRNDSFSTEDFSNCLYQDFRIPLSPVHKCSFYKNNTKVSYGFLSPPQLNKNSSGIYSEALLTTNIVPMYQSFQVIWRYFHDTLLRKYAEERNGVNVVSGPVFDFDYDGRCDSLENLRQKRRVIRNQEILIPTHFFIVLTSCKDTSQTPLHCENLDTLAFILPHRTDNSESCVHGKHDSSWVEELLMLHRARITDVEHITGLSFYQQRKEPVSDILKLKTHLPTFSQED
Method: 1. ENPP1 Inhibition Assay
Materials: • Assay Buffer: 1 mM CaCl2, 0.2 mM ZnCl2, 50 mM Tris, pH 9.0 • Substrate: 8 mM Thymidine 5′-monophosphate p-nitrophenol ester sodium salt (Sigma Cat # T4510) • Enzyme: 5 ng/μL Recombinant Human ENPP-1 Protein (R&D Cat #6136-EN-010) DMSO • 96-well clear assay plates
(§1) An eight point serial dilution of drugs was prepared in 10× in assay buffer with the final assay concentrations starting at 10 μM, 3 μM, 1 μM, 0.3 μM . . . 0 μM. A dilution of DMSO was included as a control. The assay plate was set up as follows with each well in duplicate: 81 μL assay buffer+10 μL ENPP1 inhibitor or DMSO+5 μL Substrate+4 μL Enzyme. Both the enzyme and substrate were added to opposite sides of the well to ensure that there was no interaction until all wells had both components. The plate was then centrifuged gently for 10 seconds, followed by an incubation at 37° C. for 45 minutes. The reaction was quantified by measuring absorbance at 405 nm using the Envision.
(§2) IC50 values are determined using GraphPad Prism 5 software. The data were entered as an X-Y plot into the software as percent inhibition for each concentration of the drug. The concentration values of the drug were log transformed and the nonlinear regression was carried out using the “sigmoidal dose-response (variable slope)” option within the GraphPad software to model the data and calculate IC50 values. The IC50 values reported are the concentration of drug at which 50% inhibition was reached.

[2] = tested on: Saos-2 Cells; assay: ENPP1 Mineralization Assay; type: cell-based; parameters: key to ENPP1 Mineral assay (50% inhibition at 50 μM): +: active at 50 μM concentration; NA: Not Active; conditions: for ENPP1 Mineral assay (50% inhibition at 50 μM): Alizarin Red
Method: 4. ENPP1 Mineralization Assay
Saos-2 Cells (ATCC CAT # HTB-85)
24-well Tissue Culture Plate
Ascorbic Acid, 5 mg/mL (100×)
β-Glycerophosphate, 1M (100×)
Phosphate Buffered Saline
Alizarin Red, 40 mM pH 4.2
Dye Extraction Reagent, 10% Methanol+10% Acetic Acid
Saos-2 cells were plated at a density of 1.5×10^6 cells/well and allowed to grow to 100% confluency over the following 1-2 days. Once completely confluent, the media was replaced with fresh media supplemented with 1× ascorbic acid, 1× β-glycerophosphate, and varying concentrations of ENPP1 inhibitor (if applicable). The addition of the mineralization components was considered Day 1, On Day 3, the media was gently aspirated with no wash followed by the addition of fresh media, mineralization components, and ENPP1 inhibitor (if applicable). On day 5, the media was gently aspirated and the cells were washed twice with PBS. The cells were then fixed with ice cold 70% ethanol for 1 hour at 4° C. Cells were washed once with PBS and stained with Alizarin Red for 30 minutes at room temperature with gentle rotation. Stained cells were washed three times with water for 10 minutes at room temperature with gentle rotation. After imaging cells, dye extraction reagent was added to each well and incubated for 30 minutes at room temperature. Alizarin red was quantified by measuring absorbance at a wavelength of 405 nm using the Envision.

[3] = target: Recombinant Human ENPP-2/Autotaxin Protein (Homo sapiens (Human), UniProt Q13822); assay: ENPP2 Inhibition Assay; type: biochemical; conditions: result in words
Method: 2. ENPP2 Inhibition Assay
Assay Buffer: 10 mM CaCl2, 5 mM MgCl2, 50 mM Tris, 0.02% Brij-35, pH 8.5
Substrate: 2 mM Bis(p-Nitrophenyl) Phosphate Sodium Salt (Sigma Cat # N3002)
Enzyme: 0.2 ng/μL Recombinant Human ENPP-2/Autotaxin Protein (R&D Cat #5255-EN)
96-well clear assay plates
as §1, with “duplicate: 15” for “duplicate: 81”, “buffer+10 μL,” for “buffer+10 μL”, “or DMSO+50” for “or DMSO+5”, “μL Substrate+25” for “μL Substrate+4”
as §2

Row | SMILES | IC50 [1] | ENPP1 Mineral assay (50% inhibition at 50 μM) [2] | inhibiting the activity of ENPP1 (FIG. 1) [1] | inhibiting the activity of ENPP2 (FIGS. 2A and 2B) [3] | selectivity ENPP1 versus ENPP2 [3] | inhibiting ENPP1 ability to produce mineralized nodules (FIG. 4) ([2]; result in words)
1 | O=C(CSc1nc2cnc(Cl)cc2[nH]1)Nc1ccc(F)c(O)c1 [Compound 37, 2-((6-chloro-1H-imidazo[4,5-c]pyridin-2-yl)thio)-N-(4-fluoro-3-hydroxyphenyl)acetamide] | 170 nM | + |  |  |  | 
2 | COc1cc(NC(=O)CSc2nc3cc(Cl)ncc3[nH]2)ccc1O [Compound 22, 2-((6-chloro-3H-imidazo[4,5-c]pyridin-2-yl)thio)-N-(4-hydroxy-3-methoxyphenyl)acetamide] | 1160 nM | + |  |  |  | 
3 | COc1ccc(NC(=O)CSc2nc3cnc(C(F)(F)F)cc3[nH]2)cc1F [Compound 38, N-(3-fluoro-4-methoxyphenyl)-2-((6-(trifluoromethyl)-1H-imidazo[4,5-c]pyridin-2-yl)thio)acetamide] | 487 nM | + |  |  |  | 
4 | COc1ccc(NC(=O)CSc2nc3cnc(C(F)(F)F)cc3[nH]2)cc1O [Compound 31, N-(3-hydroxy-4-methoxyphenyl)-2-((6-(trifluoromethyl)-1H-imidazo[4,5-c]pyridin-2-yl)thio)acetamide] | 181 nM | + |  |  |  | 
5 | COc1ccc(NC(=O)CSc2nc3c(C)c(C#N)ncc3[nH]2)cc1O [Compound 78, 2-((6-Cyano-7-methyl-3H-imidazo[4,5-c]pyridin-2-yl)thio)-N-(3-hydroxy-4-methoxyphenyl)acetamide] | 79 nM | + | effective in inhibiting the activity of ENPP1 | ineffective in inhibiting the activity of ENPP2 | selective at inhibiting ENPP1 but not ENPP2 | 
6 | O=C(CSc1nc2cnc(C(F)(F)F)cc2[nH]1)Nc1ccc(F)c(O)c1 [Compound 45, N-(4-fluoro-3-hydroxyphenyl)-2-((6-(trifluoromethyl)-1H-imidazo[4,5-c]pyridin-2-yl)thio)acetamide] | 651 nM | + |  |  |  | 
7 | COc1ccc(NC(=O)CSc2nc3cc(C#N)ncc3[nH]2)cc1OC [Compound 68, 2-((6-Cyano-3H-imidazo[4,5-c]pyridin-2-yl)thio)-N-(3,4-dimethoxyphenyl)acetamide] | 114 nM | + | effective in inhibiting the activity of ENPP1 |  |  | effective in inhibiting ENPP1 ability to produce mineralized nodules
